Tested on: 926638-142-R-J1-PDC complex spheroid viability
Test: Anticancer human tumor 926638-142-R-J1-PDC patient-derived endometrial carcinoma cell line growth inhibition [POLQ]
Settings: for IC50: curve of first compound; for viability, T/C: stronger effect = lower value
In short: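 Growth inhibition in 3D: complex spheroids (tumor PDC, HUVEC, MSC) treated with POLQ inhibitor combinations; where Cmax unknown, highest tested concentration 10 microM, except SN-38 at 1 microM.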

[1] = second compound 0.0316 µM, first compound 0.0316 µM
[2] = second compound 0.0316 µM, first compound 0.1 µM
[3] = second compound 0.0316 µM, first compound 0.316 µM
[4] = second compound 0.0316 µM, first compound 1 µM
[5] = second compound 0.0316 µM, first compound 3.16 µM
[6] = second compound 0.0316 µM, first compound 10 µM
[7] = second compound 0.1 µM, first compound 0.0316 µM
[8] = second compound 0.1 µM, first compound 0.1 µM
[9] = second compound 0.1 µM, first compound 0.316 µM
[10] = second compound 0.1 µM, first compound 1 µM
[11] = second compound 0.1 µM, first compound 3.16 µM
[12] = second compound 0.1 µM, first compound 10 µM
[13] = second compound 0.316 µM, first compound 0.0316 µM
[14] = second compound 0.316 µM, first compound 0.1 µM
[15] = second compound 0.316 µM, first compound 0.316 µM
[16] = second compound 0.316 µM, first compound 1 µM
[17] = second compound 0.316 µM, first compound 3.16 µM
[18] = second compound 0.316 µM, first compound 10 µM
[19] = second compound 1 µM, first compound 0.0316 µM
[20] = second compound 1 µM, first compound 0.1 µM
[21] = second compound 1 µM, first compound 0.316 µM
[22] = second compound 1 µM, first compound 1 µM
[23] = second compound 1 µM, first compound 3.16 µM
[24] = second compound 1 µM, first compound 10 µM
[25] = second compound 3.16 µM, first compound 0.0316 µM
[26] = second compound 3.16 µM, first compound 0.1 µM
[27] = second compound 3.16 µM, first compound 0.316 µM
[28] = second compound 3.16 µM, first compound 1 µM
[29] = second compound 3.16 µM, first compound 3.16 µM
[30] = second compound 3.16 µM, first compound 10 µM
[31] = second compound 10 µM, first compound 0.0316 µM
[32] = second compound 10 µM, first compound 0.1 µM
[33] = second compound 10 µM, first compound 0.316 µM
[34] = second compound 10 µM, first compound 1 µM
[35] = second compound 10 µM, first compound 3.16 µM
[36] = second compound 10 µM, first compound 10 µM
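Note: spheroids exposed to drugs for one week before readout.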
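Throughout, for viability, T/C: percent viability relative to DMSO vehicle control wells set as 100%.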

For `COc1cc2cc(C(=O)CCC(=O)O)sc2cc1OC` + Cc1cccc(N(C)C(=O)C2C(O)CCN2c2nc(C)cc(C(F)(F)F)c2C#N)c1, the IC50 (second compound 0.0316 µM) was > 10 µM, the IC50 (second compound 0.1 µM) was > 10 µM and the IC50 (second compound 0.316 µM) was > 10 µM. For the same compound, the IC50 (second compound 1 µM) was > 10 µM, the IC50 (second compound 3.16 µM) was > 10 µM and the IC50 (second compound 10 µM) was > 10 µM. For the same compound, the viability, T/C [1] was 101%, the viability, T/C [2] was 92.9% and the viability, T/C [3] was 110%. For the same compound, the viability, T/C [4] was 96.2%, the viability, T/C [5] was 98.3% and the viability, T/C [6] was 77.4%. For the same compound, the viability, T/C [7] was 104%, the viability, T/C [8] was 98.4% and the viability, T/C [9] was 99.7%. For the same compound, the viability, T/C [10] was 87.1%, the viability, T/C [11] was 83.2% and the viability, T/C [12] was 80.3%. The viability, T/C [13] was 119%, the viability, T/C [14] was 115% and the viability, T/C [15] was 109%. For the same compound, the viability, T/C [16] was 84.4%, the viability, T/C [17] was 98.2% and the viability, T/C [18] was 88.7%. The viability, T/C [19] was 99.8%, the viability, T/C [20] was 111% and the viability, T/C [21] was 76.9%. It also gave a viability, T/C [22] of 85.8%, a viability, T/C [23] of 94% and a viability, T/C [24] of 90.1%. The viability, T/C [25] was 79.5%, the viability, T/C [26] was 95.5% and the viability, T/C [27] was 99.5%. For the same compound, the viability, T/C [28] was 76.5%, the viability, T/C [29] was 110% and the viability, T/C [30] was 94.6%. It also gave a viability, T/C [31] of 79.5%, a viability, T/C [32] of 95.7% and a viability, T/C [33] of 94.5%. For the same compound, the viability, T/C [34] was 87.2%, the viability, T/C [35] was 104% and the viability, T/C [36] was 79.9%.
In the case of `CC(=O)O[C@H]1C(=O)[C@@]2(C)[C@H]([C@H](OC(=O)c3ccccc3)[C@]3(O)C[C@H](OC(=O)[C@H](O)[C@@H](NC(=O)c4ccccc4)c4ccccc4)C(C)=C1C3(C)C)[C@]1(OC(C)=O)CO[C@@H]1C[C@@H]2O` + Nc1ccc(C#CCN(C(=O)Cc2ncc(C(F)(F)F)cc2C(F)(F)F)c2ccc(F)cc2)nn1, the IC50 (second compound 0.0316 µM) is reported as 0.433 µM, the IC50 (second compound 0.1 µM) is reported as 1.3 µM and the IC50 (second compound 0.316 µM) is reported as 0.458 µM. For the same compound, the IC50 (second compound 1 µM) was > 3 µM, the IC50 (second compound 3.16 µM) was 1.94 µM and the IC50 (second compound 10 µM) was 0.139 µM. For the same compound, the viability, T/C (second compound 0.0316 µM, first compound 0.00949 µM) was 85.1%, the viability, T/C (second compound 0.0316 µM, first compound 0.03 µM) was 62.4% and the viability, T/C (second compound 0.0316 µM, first compound 0.0949 µM) was 56.9%. For the same compound, the viability, T/C (second compound 0.0316 µM, first compound 0.3 µM) was 50.7%, the viability, T/C (second compound 0.0316 µM, first compound 0.949 µM) was 47.9% and the viability, T/C (second compound 0.0316 µM, first compound 3 µM) was 48%. It also gave a viability, T/C (second compound 0.1 µM, first compound 0.00949 µM) of 84.3%, a viability, T/C (second compound 0.1 µM, first compound 0.03 µM) of 76.3% and a viability, T/C (second compound 0.1 µM, first compound 0.0949 µM) of 58.2%. It also gave a viability, T/C (second compound 0.1 µM, first compound 0.3 µM) of 69.8%, a viability, T/C (second compound 0.1 µM, first compound 0.949 µM) of 51% and a viability, T/C (second compound 0.1 µM, first compound 3 µM) of 42.9%. The viability, T/C (second compound 0.316 µM, first compound 0.00949 µM) was 91.4%, the viability, T/C (second compound 0.316 µM, first compound 0.03 µM) was 72.3% and the viability, T/C (second compound 0.316 µM, first compound 0.0949 µM) was 57.5%. For the same compound, the viability, T/C (second compound 0.316 µM, first compound 0.3 µM) was 47.7%, the viability, T/C (second compound 0.316 µM, first compound 0.949 µM) was 50.9% and the viability, T/C (second compound 0.316 µM, first compound 3 µM) was 45.2%. It also gave a viability, T/C (second compound 1 µM, first compound 0.00949 µM) of 79.3%, a viability, T/C (second compound 1 µM, first compound 0.03 µM) of 71.3% and a viability, T/C (second compound 1 µM, first compound 0.0949 µM) of 57%. The viability, T/C (second compound 1 µM, first compound 0.3 µM) was 51.8%, the viability, T/C (second compound 1 µM, first compound 0.949 µM) was 50.7% and the viability, T/C (second compound 1 µM, first compound 3 µM) was 50.8%. It also gave a viability, T/C (second compound 3.16 µM, first compound 0.00949 µM) of 82.7%, a viability, T/C (second compound 3.16 µM, first compound 0.03 µM) of 65% and a viability, T/C (second compound 3.16 µM, first compound 0.0949 µM) of 53.6%. The viability, T/C (second compound 3.16 µM, first compound 0.3 µM) was 53.1%, the viability, T/C (second compound 3.16 µM, first compound 0.949 µM) was 52.8% and the viability, T/C (second compound 3.16 µM, first compound 3 µM) was 47.3%. The viability, T/C (second compound 10 µM, first compound 0.00949 µM) was 76.3%, the viability, T/C (second compound 10 µM, first compound 0.03 µM) was 60.7% and the viability, T/C (second compound 10 µM, first compound 0.0949 µM) was 50.4%. It also gave a viability, T/C (second compound 10 µM, first compound 0.3 µM) of 49%, a viability, T/C (second compound 10 µM, first compound 0.949 µM) of 46.9% and a viability, T/C (second compound 10 µM, first compound 3 µM) of 51.8%.
`COc1cccc2c1C(=O)c1c(O)c3c(c(O)c1C2=O)CC(O)(C(=O)CO)CC3OC1CC(N)C(O)C(C)O1` (stereo unspecified) + Nc1ccc(C#CCN(C(=O)Cc2ncc(C(F)(F)F)cc2C(F)(F)F)c2ccc(F)cc2)nn1 showed an IC50 (second compound 0.0316 µM) of 0.167 µM, an IC50 (second compound 0.1 µM) of 0.14 µM and an IC50 (second compound 0.316 µM) of 0.137 µM. The IC50 (second compound 1 µM) was 0.15 µM, the IC50 (second compound 3.16 µM) was 0.118 µM and the IC50 (second compound 10 µM) was 0.127 µM. For the same compound, the viability, T/C [1] was 86.7%, the viability, T/C [2] was 69.4% and the viability, T/C [3] was 25.7%. The viability, T/C [4] was 8.06%, the viability, T/C [5] was 0.22% and the viability, T/C [6] was 0.4%. It also gave a viability, T/C [7] of 90.7%, a viability, T/C [8] of 59.6% and a viability, T/C [9] of 26.1%. It also gave a viability, T/C [10] of 6.81%, a viability, T/C [11] of 0.22% and a viability, T/C [12] of 0.36%. For the same compound, the viability, T/C [13] was 78.7%, the viability, T/C [14] was 58.9% and the viability, T/C [15] was 26.5%. It also gave a viability, T/C [16] of 7.2%, a viability, T/C [17] of 0.19% and a viability, T/C [18] of 0.51%. It also gave a viability, T/C [19] of 89%, a viability, T/C [20] of 62.4% and a viability, T/C [21] of 27.4%. The viability, T/C [22] was 7.01%, the viability, T/C [23] was 0.23% and the viability, T/C [24] was 0.29%. The viability, T/C [25] was 80.6%, the viability, T/C [26] was 54.4% and the viability, T/C [27] was 23.2%. For the same compound, the viability, T/C [28] was 7.1%, the viability, T/C [29] was 0.27% and the viability, T/C [30] was 0.31%. The viability, T/C [31] was 74%, the viability, T/C [32] was 57.6% and the viability, T/C [33] was 20.7%. The viability, T/C [34] was 3.99%, the viability, T/C [35] was 0.31% and the viability, T/C [36] was 0.43%.

Reference: PubChem BioAssay AID1963826 (Molecular Pharmacology Branch, DTP, NCI, 2024)
